Assays:
H2452 cells = assay: MTT cell growth assay, H2452; format: cell-based; conditions: day 2
Method: MESO1 or H2452 cells (2×10^3 cells/well) were inoculated to a 96-well plate. One hour later, cisplatin or pemetrexed was added thereto at 10^−9, 10^−8, 10^−7, 10^−6, 10^−5, or 10^−4 M (n=6). At day 2, MTT assay was conducted.
H2452 cells (2×10^3 cells/well) were inoculated to a 96-well plate. One hour later, the combination of 0.03, 0.3, or 1 μM cisplatin and 0.1, 3, or 10 μg/ml YS110, or the combination of 0.01, 0.1, or 0.3 μM pemetrexed and 0.1, 3, or 10 μg/ml YS110 was added thereto (n=6). At day 2, MTT assay was conducted. Significant difference was tested by two-tailed t-test (vs Cont).
MESO1 cells (2×10^3 cells/well) or H2452 cells (2×10^3 cells/well) were inoculated to a 96-well plate. One hour later, 0.3 μM cisplatin-0.1 μM pemetrexed combination, or YS110 (10 μg/ml) plus the 0.3 μM cisplatin-0.1 μM pemetrexed combination was added thereto (n=6). At day 2, MTT assay was conducted. Significant difference was tested by two-tailed t-test (vs Cont).
(§1) Gemcitabine was studied for its effect on the growth of a mesothelioma cell line. A mesothelioma cell line MESO1, JMN, H2452, or H226 (2×10^3 cells/well) was inoculated to a 96-well plate. One hour later, gemcitabine (10^−9, 10^−8, 10^−7, 10^−6, 10^−5, or 10^−4 M) was added thereto (N=6). 2 days later, MTT assay was conducted. Significant difference was tested by two-tailed t-test (vs Cont).
(§2) H2452 cells (2×10^3 cells/well) were inoculated to a 96-well plate. One hour later, gemcitabine (0, 10^−8, 3×10^−8, or 10^−7 M) and YS110 (0, 1, 3, or 10 μg/ml) were added thereto in combination. At day 2, MTT assay was conducted. Significant difference was tested by two-tailed t-test (vs Cont). Next, interaction in concomitant use of medications was studied (n=6). The interaction between YS110 and gemcitabine used concomitantly was analyzed by two-way ANOVA.
(§3) MESO1, JMN, H2452 or H226 cells (2×10^3 cells/well were inoculated to a 96-well plate. One hour later, 3×10^−8 M or 10^−7 M gemcitabine was added thereto by concomitant use with the combination of cisplatin (0, 0.1, 0.3, or 1 μM) and pemetrexed (0, 0.03, 0.1, or 0.3 μM) (n=6). At day 2, MTT assay was conducted.
(§4) The growth inhibitory effect of gemcitabine (10^−9 to 10^−4 M) was compared using MESO1, H2452, JMN, and H226 cell lines.

JMN cells = assay: MTT cell growth assay, JMN; format: cell-based; conditions: gemcitabine 3×10^−10, 10^−9, or 3×10^−8 M and YS110 1, 3, or 10 μg/ml; day 2
Method: as §1
as §2, with “JMN” for “H2452”, “3×10^−10, 10^−9,” for “10^−8, 3×10^−8,”, “3×10^−8” for “10^−7”
as §3
The growth inhibitory effects of cisplatin (10^−9 to 10^−4 M) and pemetrexed (10^−9 to 10^−4 M) were compared using the MESO1 and JMN cell lines.
as §4

MESO1 cells [1] = assay: In vivo MESO1 cell growth in SCID mice (tumor weight); conditions: YS110 10 mg/kg, cisplatin 0.5 mg/kg, pemetrexed 50 mg/kg, intraperitoneal, days 1 and 4; tumor weight day 7
Method: MESO1 cells (3×10^5 cells/animal) were subcutaneously transplanted to the backs of female SCID mice. The day of transplantation was defined as day 0. YS110 (10 mg/kg) alone, cisplatin (0.5 mg/kg)-pemetrexed (50 mg/kg) used concomitantly, or YS110 (10 mg/kg) concomitantly used with the cisplatin-pemetrexed concomitant use was intraperitoneally administered to the mice twice (days 1 and 4). At day 7, their tumors were excised, and the tumor weights were measured. Significant difference was tested by two-tailed t-test (vs Cont).

MESO1 cells [2] = assay: Boyden chamber invasion assay, MESO1; format: cell-based; conditions: cisplatin 0, 3, or 10 μM and YS110 0, 10, or 20 μg/ml; 24 hours
Method: MESO1 cells or H2452 cells (2.5×10^4 cells/well) were inoculated to a Boyden chamber. One hour later, cisplatin (5, 10, or 30 μM) or pemetrexed (1, 10, or 30 μM) was added thereto (n=5), followed by Boyden chamber invasion assay. 24 hours after the cell inoculation, invasive cells were stained with Diff-Quik-staining kit. Significant difference was tested by two-tailed t-test (vs Cont).
(§5) MESO1 cells or H2452 cells (2.5×10^4 cells/well) were inoculated to a Boyden chamber. One hour later, the combination of cisplatin (0, 3, or 10 μM) and pemetrexed (0, 10, or 30 μM) was added thereto (n=5), followed by Boyden chamber invasion assay. 24 hours after the cell inoculation, invasive cells were stained with Diff-Quik-staining kit. Significant difference was tested by two-tailed t-test (vs Cont).
as §5, with “MESO1” for “MESO1 cells or H2452”, “YS110” for “pemetrexed”, “20 μg/ml)” for “30 μM)”, “Cont). Next, the interaction of YS110 with cisplatin-pemetrexed concomitant use was studied. The interaction was analyzed by two-way ANOVA.” for “Cont).”

HCC4006 cells = assay: In vivo growth of CD26-positive lung cancer cell line HCC4006 in SCID mice (tumor weight); conditions: YS110 10 mg/kg intraperitoneal, gefitinib 100 mg/kg oral, days 1 and 4; day 7
[3] = test system: CD26-positive malignant mesothelioma cell line JMN; conditions: mouse, in vivo
Method: NOD/SCID (NOD/LtSz-scid) mice were maintained in a microisolator cage within a specific pathogen-free (SPF) facility and allowed to freely take sterilized diet and sterilized water.
1×10^7 cultured JMN cells were subcutaneously administered to 6- to 8-week-old female NOD/SCID mice. […] The same amount of PBS was administered to the control group. When a tumor became evidently visible, the tumor was excised, and its size was measured with a vernier caliper. The estimated tumor volume was determined by calculation according to the expression: π/6×L×W×W (Tomayko M M et al., Cancer Chemother Pharmacol. (1989) 24: 148-54). The statistical difference among the average tumor volumes of these groups were determined by Fisher's protected least-square differences (PLSD) multiple comparison test. Statistical analysis was conducted using SPSS software (IBM, Armonk, N.Y.).

[4] = in vivo; cited from earlier work

## YS110: humanized anti-CD26 antibody designed based on anti-CD26 mouse antibody 14D10; SEQ ID NO: 17 and 18
H2452 cells; 0.01, 0.1, or 0.3 μM pemetrexed and 0.1, 3, or 10 μg/ml YS110
  effect of YS110 on the cell growth inhibitory effect of pemetrexed: potentiated
H2452 cells; 0.03, 0.3, or 1 μM cisplatin and 0.1, 3, or 10 μg/ml YS110
  effect of YS110 on the cell growth inhibitory effect of cisplatin: potentiated
H2452 cells; YS110 10 μg/ml plus 0.3 μM cisplatin-0.1 μM pemetrexed
  effect of YS110 on the cell growth inhibitory effect of cisplatin-pemetrexed: potentiated
H2452 cells; gemcitabine 10^−8, 3×10^−8, or 10^−7 M and YS110 1, 3, or 10 μg/ml
  effect of YS110 on the growth inhibitory effect of gemcitabine: potentiated
JMN cells
  effect of YS110 on the growth inhibitory effect of gemcitabine: potentiated
MESO1 cells [1]
  effect of YS110 on the in vivo tumor growth inhibitory effect of cisplatin-pemetrexed: potentiated
MESO1 cells [2]
  effect of YS110 on the cell invasion inhibitory action of cisplatin-pemetrexed: potentiated
HCC4006 cells
  effect of YS110 on the effect of gefitinib (tumor weight): potentiated
[3]
  average body weight of the mice compared among the groups: did not remarkably differ
[4]
  safety in phase I clinical trial: demonstrated its safety

— patent publication US11273217B2, “Cancer treatment composition combining anti-CD26 antibody and other anticancer agent” (Y's AC Co., Ltd., priority 2015, dated 2022)
